For three molecules, inhibition results are on record in PMC11314561, “Design and Synthesis of Novel Aminoindazole-pyrrolo[2,3-b]pyridine Inhibitors of IKKα That Selectively Perturb Cellular Non-Canonical NF-κB Signalling” (Molecules, 2024).

As usually defined, the inhibition is the change of the read-out against control, counted positive when it falls.

What all share (test): kinase panel
Holding throughout (format): biochemical

For one assay, the target named is DAPK1(h) (Homo sapiens, UniProt P53355). A digest of the protocol:
(§1)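 Percentage inhibition was recorded for each compound against a broad kinase panel of 231 enzymes. Because of its close structural resemblance to another analogue, one compound was screened against 98 chosen kinases.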

A further assay concerns the target T1, SGK(h) (Homo sapiens, UniProt O00141).
T1 sequence (O00141 1-431): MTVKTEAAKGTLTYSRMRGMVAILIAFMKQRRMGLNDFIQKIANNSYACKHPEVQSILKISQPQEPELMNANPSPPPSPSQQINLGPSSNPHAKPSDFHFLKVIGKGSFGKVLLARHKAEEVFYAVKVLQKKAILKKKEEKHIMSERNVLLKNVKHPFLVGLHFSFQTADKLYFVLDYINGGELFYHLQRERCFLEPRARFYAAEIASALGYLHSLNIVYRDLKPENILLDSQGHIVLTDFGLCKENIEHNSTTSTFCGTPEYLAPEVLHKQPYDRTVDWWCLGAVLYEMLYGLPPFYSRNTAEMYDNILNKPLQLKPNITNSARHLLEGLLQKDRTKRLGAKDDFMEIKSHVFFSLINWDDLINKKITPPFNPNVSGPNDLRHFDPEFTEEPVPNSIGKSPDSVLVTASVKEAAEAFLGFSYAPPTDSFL
A digest of the protocol:
as §1

Another assay concerns the target KDR(h) (Homo sapiens, UniProt P35968). The essentials:
as §1

A further assay deals with T2, PKD2(h) (Homo sapiens, UniProt Q9BZL6).
T2 sequence (Q9BZL6 1-878): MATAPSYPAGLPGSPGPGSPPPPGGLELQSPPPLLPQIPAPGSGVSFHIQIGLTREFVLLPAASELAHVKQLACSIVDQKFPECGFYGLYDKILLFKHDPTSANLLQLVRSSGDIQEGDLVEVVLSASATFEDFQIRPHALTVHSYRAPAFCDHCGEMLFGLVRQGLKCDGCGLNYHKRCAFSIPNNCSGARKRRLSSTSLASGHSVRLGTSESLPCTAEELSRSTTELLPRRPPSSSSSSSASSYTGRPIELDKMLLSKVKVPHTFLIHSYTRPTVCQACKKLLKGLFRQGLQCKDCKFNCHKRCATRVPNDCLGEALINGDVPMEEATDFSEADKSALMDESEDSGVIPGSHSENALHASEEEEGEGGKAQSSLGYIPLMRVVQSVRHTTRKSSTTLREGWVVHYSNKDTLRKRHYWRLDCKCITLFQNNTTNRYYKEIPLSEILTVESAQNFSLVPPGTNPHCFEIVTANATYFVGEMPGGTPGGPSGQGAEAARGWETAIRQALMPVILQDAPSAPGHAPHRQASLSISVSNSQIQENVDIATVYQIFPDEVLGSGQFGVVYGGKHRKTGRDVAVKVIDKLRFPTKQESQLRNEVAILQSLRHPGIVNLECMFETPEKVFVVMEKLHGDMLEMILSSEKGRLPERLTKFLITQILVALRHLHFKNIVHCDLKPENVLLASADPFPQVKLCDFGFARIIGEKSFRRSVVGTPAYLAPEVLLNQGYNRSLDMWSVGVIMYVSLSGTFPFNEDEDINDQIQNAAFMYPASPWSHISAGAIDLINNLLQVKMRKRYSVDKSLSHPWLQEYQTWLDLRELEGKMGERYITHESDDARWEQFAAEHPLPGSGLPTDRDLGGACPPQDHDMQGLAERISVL
The essentials: as §1

Another assay concerns the target MEK1(h) (Homo sapiens, UniProt Q02750). A digest of the protocol: as §1
Another assay has as its target T3, IRAK4(h) (Homo sapiens, UniProt Q9NWZ3).
T3 sequence (Q9NWZ3 1-460): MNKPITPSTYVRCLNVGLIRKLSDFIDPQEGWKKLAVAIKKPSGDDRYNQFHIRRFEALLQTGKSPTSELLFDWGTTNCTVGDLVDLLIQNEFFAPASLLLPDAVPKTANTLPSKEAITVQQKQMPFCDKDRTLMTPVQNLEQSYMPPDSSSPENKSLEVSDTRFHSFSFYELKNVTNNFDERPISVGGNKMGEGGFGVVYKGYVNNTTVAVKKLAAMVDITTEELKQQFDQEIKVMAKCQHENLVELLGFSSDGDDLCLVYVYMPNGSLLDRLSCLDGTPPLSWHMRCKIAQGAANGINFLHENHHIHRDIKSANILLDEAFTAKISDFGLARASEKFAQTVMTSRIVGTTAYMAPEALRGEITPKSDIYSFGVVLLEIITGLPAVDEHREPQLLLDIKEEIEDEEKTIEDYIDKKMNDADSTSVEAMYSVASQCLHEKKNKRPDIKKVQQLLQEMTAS
The essentials: as §1

Another assay deals with CDK3/cyclinE(h) (Homo sapiens, UniProt Q00526). A digest of the protocol:
as §1

In a further assay the target is T4, SAPK3(h) (Homo sapiens, UniProt P53778).
T4 sequence (P53778 1-367): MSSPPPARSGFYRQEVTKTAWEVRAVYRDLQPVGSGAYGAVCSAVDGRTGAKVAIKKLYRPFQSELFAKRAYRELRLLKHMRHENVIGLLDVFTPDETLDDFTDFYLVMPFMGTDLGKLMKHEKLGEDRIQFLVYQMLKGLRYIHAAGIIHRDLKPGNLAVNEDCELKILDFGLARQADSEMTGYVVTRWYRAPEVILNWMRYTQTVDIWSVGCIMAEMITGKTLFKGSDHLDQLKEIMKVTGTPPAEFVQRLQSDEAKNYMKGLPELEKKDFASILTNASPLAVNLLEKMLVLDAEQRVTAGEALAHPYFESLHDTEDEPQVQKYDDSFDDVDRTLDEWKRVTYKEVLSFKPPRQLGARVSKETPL
A digest of the protocol:
as §1

The next assay has as its target T5, TAK1(h) (Homo sapiens, UniProt O43318).
T5 sequence (O43318 1-303 limits assumed): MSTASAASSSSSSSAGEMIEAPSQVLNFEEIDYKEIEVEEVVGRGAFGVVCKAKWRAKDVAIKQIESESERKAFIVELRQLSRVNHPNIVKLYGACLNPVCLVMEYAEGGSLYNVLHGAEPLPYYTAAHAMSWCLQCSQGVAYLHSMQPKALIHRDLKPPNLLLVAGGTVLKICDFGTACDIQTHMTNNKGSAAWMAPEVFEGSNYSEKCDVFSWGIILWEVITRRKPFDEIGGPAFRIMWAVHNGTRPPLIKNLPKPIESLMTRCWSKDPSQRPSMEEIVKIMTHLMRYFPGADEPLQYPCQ
A digest of the protocol: as §1

Another assay concerns the target PAR-1Bα(h) (Homo sapiens, UniProt Q7KZI7). The essentials:
as §1

Chain of KDR(h) (P35968 20-1356): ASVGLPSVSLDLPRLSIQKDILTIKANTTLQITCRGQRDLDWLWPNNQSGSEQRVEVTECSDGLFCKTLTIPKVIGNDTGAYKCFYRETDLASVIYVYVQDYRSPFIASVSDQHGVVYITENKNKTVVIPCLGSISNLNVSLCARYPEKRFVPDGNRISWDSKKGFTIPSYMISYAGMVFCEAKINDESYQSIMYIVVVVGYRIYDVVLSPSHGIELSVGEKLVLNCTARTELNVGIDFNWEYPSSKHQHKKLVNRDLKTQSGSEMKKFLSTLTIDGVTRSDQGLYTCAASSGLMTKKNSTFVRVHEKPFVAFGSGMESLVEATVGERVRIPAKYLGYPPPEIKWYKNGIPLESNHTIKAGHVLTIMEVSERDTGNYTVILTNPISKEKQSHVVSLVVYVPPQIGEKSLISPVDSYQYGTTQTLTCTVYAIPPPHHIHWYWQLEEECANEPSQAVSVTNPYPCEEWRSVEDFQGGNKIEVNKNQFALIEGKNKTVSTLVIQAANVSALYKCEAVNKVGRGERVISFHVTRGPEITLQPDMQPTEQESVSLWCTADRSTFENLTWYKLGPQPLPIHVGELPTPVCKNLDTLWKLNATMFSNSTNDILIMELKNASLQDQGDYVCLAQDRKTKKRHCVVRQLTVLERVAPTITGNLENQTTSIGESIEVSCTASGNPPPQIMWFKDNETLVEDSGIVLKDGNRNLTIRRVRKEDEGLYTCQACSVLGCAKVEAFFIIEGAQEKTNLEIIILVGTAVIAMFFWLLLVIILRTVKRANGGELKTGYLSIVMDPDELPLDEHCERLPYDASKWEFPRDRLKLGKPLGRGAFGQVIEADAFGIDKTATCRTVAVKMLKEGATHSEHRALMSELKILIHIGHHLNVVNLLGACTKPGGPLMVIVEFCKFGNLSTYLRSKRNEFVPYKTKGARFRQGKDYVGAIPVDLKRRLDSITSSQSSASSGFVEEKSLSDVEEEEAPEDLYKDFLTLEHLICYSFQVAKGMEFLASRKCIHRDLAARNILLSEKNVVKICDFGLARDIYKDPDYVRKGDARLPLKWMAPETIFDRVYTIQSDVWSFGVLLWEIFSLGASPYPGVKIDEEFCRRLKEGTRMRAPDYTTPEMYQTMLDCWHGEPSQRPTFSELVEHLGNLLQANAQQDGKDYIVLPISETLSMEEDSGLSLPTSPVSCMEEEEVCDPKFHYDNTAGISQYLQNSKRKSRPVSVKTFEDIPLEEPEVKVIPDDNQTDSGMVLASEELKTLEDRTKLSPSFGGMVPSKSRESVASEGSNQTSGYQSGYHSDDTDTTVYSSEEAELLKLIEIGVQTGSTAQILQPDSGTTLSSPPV
Chain of MEK1(h) (Q02750 whole entry): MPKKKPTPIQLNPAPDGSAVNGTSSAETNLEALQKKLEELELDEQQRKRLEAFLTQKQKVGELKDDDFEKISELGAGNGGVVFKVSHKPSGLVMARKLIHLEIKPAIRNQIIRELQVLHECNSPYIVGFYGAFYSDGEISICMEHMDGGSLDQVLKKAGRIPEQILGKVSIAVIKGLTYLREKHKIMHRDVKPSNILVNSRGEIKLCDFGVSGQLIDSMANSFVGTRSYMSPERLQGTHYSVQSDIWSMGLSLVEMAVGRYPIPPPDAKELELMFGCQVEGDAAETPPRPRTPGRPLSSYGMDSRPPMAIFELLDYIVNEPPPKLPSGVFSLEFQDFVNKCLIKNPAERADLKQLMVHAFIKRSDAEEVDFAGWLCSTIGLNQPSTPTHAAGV
Chain of PAR-1Bα(h) (Q7KZI7 whole entry): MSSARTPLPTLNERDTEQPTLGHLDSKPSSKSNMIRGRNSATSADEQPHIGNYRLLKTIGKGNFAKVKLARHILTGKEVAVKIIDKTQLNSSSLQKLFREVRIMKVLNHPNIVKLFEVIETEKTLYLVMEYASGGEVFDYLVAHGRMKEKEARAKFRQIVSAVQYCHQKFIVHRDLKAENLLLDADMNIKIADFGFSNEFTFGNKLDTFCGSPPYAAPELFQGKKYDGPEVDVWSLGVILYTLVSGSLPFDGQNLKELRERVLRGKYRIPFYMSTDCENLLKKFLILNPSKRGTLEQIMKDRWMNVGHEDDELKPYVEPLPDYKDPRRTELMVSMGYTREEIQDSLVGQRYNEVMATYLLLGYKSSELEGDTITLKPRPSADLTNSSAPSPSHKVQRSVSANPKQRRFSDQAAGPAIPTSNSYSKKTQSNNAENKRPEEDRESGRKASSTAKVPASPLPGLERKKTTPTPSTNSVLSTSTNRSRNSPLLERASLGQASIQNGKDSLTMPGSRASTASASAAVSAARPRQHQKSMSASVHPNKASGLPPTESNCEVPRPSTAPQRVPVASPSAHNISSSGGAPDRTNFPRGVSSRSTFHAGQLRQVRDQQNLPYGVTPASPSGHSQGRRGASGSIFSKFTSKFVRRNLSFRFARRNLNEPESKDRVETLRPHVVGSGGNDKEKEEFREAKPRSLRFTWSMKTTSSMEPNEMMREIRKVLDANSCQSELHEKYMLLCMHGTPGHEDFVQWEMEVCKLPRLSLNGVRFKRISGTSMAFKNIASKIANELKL
Chain of DAPK1(h) (P53355 whole entry): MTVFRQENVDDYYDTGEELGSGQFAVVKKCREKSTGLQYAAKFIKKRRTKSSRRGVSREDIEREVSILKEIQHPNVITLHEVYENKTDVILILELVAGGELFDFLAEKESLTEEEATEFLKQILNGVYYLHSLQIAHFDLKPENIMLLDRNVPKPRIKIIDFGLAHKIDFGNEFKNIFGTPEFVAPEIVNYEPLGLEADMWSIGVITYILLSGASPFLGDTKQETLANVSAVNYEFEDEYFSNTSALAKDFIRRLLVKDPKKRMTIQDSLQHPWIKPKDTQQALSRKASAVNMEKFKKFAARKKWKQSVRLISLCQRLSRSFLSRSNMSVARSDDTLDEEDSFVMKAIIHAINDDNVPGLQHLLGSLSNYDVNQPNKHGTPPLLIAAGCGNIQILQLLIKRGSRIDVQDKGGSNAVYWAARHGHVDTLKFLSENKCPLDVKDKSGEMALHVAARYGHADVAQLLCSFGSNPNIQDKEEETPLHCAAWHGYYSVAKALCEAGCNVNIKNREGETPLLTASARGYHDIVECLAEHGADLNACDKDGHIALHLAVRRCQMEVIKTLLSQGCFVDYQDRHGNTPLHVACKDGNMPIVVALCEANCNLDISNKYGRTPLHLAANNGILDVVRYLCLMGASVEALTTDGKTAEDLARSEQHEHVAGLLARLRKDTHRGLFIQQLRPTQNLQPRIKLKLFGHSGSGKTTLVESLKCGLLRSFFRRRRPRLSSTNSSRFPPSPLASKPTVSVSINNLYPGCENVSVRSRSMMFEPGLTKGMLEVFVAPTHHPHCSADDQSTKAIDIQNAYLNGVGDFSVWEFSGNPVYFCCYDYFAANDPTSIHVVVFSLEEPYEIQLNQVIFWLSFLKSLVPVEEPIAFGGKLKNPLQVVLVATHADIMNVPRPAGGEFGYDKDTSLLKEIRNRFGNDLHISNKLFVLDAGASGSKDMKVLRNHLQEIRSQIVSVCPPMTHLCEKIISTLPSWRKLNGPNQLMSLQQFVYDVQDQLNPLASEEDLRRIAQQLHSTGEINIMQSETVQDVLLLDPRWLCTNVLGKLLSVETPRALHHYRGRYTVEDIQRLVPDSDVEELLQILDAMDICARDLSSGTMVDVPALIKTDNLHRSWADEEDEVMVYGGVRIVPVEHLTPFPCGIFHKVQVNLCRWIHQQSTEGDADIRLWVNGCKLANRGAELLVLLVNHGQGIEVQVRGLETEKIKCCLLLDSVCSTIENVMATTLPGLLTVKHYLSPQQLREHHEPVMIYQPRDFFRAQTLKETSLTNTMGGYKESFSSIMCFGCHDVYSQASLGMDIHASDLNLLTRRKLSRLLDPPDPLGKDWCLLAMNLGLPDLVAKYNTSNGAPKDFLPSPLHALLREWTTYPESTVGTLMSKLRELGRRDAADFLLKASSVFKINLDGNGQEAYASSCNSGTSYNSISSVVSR
Chain of CDK3/cyclinE(h) (Q00526 whole entry): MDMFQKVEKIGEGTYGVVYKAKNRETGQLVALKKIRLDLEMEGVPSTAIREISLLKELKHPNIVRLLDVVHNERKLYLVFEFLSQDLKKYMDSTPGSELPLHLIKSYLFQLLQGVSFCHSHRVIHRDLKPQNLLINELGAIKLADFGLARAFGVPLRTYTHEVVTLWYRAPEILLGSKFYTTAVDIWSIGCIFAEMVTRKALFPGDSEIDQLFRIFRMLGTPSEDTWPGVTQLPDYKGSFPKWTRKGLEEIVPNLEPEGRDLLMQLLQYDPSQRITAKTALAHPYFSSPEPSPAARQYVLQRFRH
Chain of CDK3/cyclinE(h) (P24864 whole entry partner): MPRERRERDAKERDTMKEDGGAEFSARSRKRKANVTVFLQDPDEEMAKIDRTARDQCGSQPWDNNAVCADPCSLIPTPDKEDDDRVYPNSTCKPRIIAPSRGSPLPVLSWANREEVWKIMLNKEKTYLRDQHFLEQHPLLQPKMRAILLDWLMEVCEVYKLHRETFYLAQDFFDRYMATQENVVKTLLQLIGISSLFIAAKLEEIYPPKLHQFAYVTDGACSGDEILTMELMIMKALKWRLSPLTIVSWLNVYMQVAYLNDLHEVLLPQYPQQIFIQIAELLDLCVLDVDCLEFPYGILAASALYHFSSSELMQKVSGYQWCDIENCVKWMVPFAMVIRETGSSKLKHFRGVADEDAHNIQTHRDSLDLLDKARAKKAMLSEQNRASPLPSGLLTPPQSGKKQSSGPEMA

Consider `Nc1n[nH]c2ccc(-c3ccnc4[nH]c(-c5ccnc(OCc6ccccc6)c5)cc34)cc12` [Compound 6g [SU1349]], for which the inhibition at 1 µM against DAPK1(h) is 4%; on SGK(h), 22%; against KDR(h) it was 26%; against PKD2(h), -5%; against MEK1(h), 8%; against IRAK4(h), -8%. Further, the inhibition at 1 µM amounted to 37% against CDK3/cyclinE(h), 44% against SAPK3(h), 0% against TAK1(h) and 20% on PAR-1Bα(h).
For the molecule `Nc1n[nH]c2ccc(-c3ccnc4[nH]c(-c5cccc(OCc6ccccc6)c5)cc34)cc12` [Compound 5r [SU1261]], the inhibition at 1 µM on DAPK1(h) is -15%; against SGK(h), -10%; on KDR(h), 42%; on PKD2(h), -1%; against MEK1(h), 0%; against IRAK4(h), 3%. The inhibition at 1 µM against CDK3/cyclinE(h) stood at 45%; against SAPK3(h) it was 49%; on TAK1(h), 6%; against PAR-1Bα(h) it was 29%.
Consider `Nc1n[nH]c2ccc(-c3ccnc4[nH]c(-c5ccccc5)cc34)cc12` [Compound 4], for which the inhibition at 1 µM is -1% against DAPK1(h); 15% on SGK(h); 93% against KDR(h); 8% on PKD2(h); 8% against MEK1(h); 25% against IRAK4(h). In addition, the inhibition at 1 µM turned out to be 94% against CDK3/cyclinE(h), 99% on SAPK3(h), 28% against TAK1(h) and 86% against PAR-1Bα(h).
